Counter-ions that a name gives are not always drawn.
Molecular target: T1, HCV polymerase (Hepatitis C virus genotype 1b, UniProt P26663)
T1 construct: a region encoding NS5B (591 amino acids; J Virol 1991 Mar, 65(3), 1105-13) was amplified by PCR; 6 His (N); made in house; host or cells: Escherichia coli
Assay: biochemical
Settings: read-out: HCV polymerase inhibitory activity IC50

T1 sequence (P26663 2420-3010): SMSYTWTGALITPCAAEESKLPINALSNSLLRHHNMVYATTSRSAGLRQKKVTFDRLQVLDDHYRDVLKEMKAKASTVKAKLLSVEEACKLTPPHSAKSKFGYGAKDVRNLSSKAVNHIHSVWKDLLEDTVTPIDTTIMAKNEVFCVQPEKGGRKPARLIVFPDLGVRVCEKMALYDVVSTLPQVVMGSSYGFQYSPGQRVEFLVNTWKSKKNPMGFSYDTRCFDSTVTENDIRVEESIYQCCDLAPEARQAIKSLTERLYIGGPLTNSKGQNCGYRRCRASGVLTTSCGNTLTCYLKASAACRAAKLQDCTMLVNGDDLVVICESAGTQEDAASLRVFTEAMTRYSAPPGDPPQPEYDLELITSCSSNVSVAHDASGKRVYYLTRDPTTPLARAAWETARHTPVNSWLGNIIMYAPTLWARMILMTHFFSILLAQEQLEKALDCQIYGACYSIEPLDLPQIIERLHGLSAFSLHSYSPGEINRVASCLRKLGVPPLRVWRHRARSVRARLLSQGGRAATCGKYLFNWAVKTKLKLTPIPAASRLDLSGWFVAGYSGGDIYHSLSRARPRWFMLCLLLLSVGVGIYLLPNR

`O=C(O)c1ccc2c(c1)nc(-c1ccc(OCc3cc(OCCCO)ccc3-c3ccc(Cl)cc3)cc1)n2C1CCCCC1` [Example 334, 2-{4-[2-(4-chlorophenyl)-5-(3-hydroxypropyloxy)benzyloxy]phenyl}-1-cyclohexylbenzimidazole-5-carboxylic acid] gave an IC50 of 16 nM.
`O=C(O)c1ccc2c(c1)nc(-c1ccc(OCc3cc(OCCO)ccc3-c3ccc(Cl)cc3)cc1)n2C1CCCCC1` [Example 335, 2-{4-[2-(4-chlorophenyl)-5-(2-hydroxyethoxy)benzyloxy]phenyl}-1-cyclohexylbenzimidazole-5-carboxylic acid hydrochloride] gave an IC50 of 13 nM.
`CC1CCN(C(=O)c2ccc(-c3ccc(Cl)cc3)c(COc3ccc(-c4nc5cc(C(=O)O)ccc5n4C4CCCCC4)cc3)c2)CC1` [Example 341, 2-{4-[2-(4-chlorophenyl)-5-(4-methylpiperidin-1-ylcarbonyl)benzyloxy]phenyl}-1-cyclohexylbenzimidazole-5-carboxylic acid hydrochloride] showed an IC50 of 25 nM.
`CC(=O)c1ccc(-c2ccc(Cl)cc2)c(COc2ccc(-c3nc4cc(C(=O)O)ccc4n3C3CCCCC3)cc2)c1` [Example 342, 2-{4-[5-acetyl-2-(4-chlorophenyl)benzyloxy]phenyl}-1-cyclohexylbenzimidazole-5-carboxylic acid hydrochloride] gave an IC50 of 15 nM.
`O=C(O)c1ccc2c(c1)nc(-c1ccc(OCc3cc(OCC(=O)N4CCC(O)CC4)ccc3-c3ccc(Cl)cc3)cc1)n2C1CCCCC1` [Example 343] gave an IC50 of 17 nM.
With `COCCOc1ccc(-c2ccc(Cl)cc2)c(COc2ccc(-c3nc4cc(C(=O)O)ccc4n3C3CCCCC3)cc2)c1` [Example 344, 2-{4-[2-(4-chlorophenyl)-5-(2-methoxyethoxy)benzyloxy]phenyl}-1-cyclohexylbenzimidazole-5-carboxylic acid hydrochloride] the IC50 was 16 nM.
`COCCOCCOc1ccc(-c2ccc(Cl)cc2)c(COc2ccc(-c3nc4cc(C(=O)O)ccc4n3C3CCCCC3)cc2)c1` [Example 345, 2-{4-[2-(4-chlorophenyl)-5-{2-(2-methoxyethoxy)ethoxy}-benzyloxy]phenyl}-1-cyclohexylbenzimidazole-5-carboxylic acid hydrochloride] showed an IC50 of 12 nM.
With `CC(C)CC(=O)c1ccc(-c2ccc(Cl)cc2)c(COc2ccc(-c3nc4cc(C(=O)O)ccc4n3C3CCCCC3)cc2)c1` [Example 346, 2-{4-[2-(4-chlorophenyl)-5-(isobutylcarbonyl)benzyloxy]phenyl}-1-cyclohexylbenzimidazole-5-carboxylic acid] the IC50 was 25 nM.
With `Cc1nc(-c2ccc(-c3ccc(Cl)cc3)c(COc3ccc(-c4nc5cc(C(=O)O)ccc5n4C4CCCCC4)cc3)c2)cs1` [Example 347, 2-{4-[2-(4-chlorophenyl)-5-(2-methylthiazol-4-yl)benzyloxy]-phenyl}-1-cyclohexylbenzimidazole-5-carboxylic acid] the IC50 was 22 nM.
For `Cc1noc(-c2ccc(-c3ccc(Cl)cc3)c(COc3ccc(-c4nc5cc(C(=O)O)ccc5n4C4CCCCC4)cc3)c2)n1` [Example 349, 2-{4-[2-(4-chlorophenyl)-5-(3-methyl-1,2,4-oxadiazol-5-yl)benzyloxy]phenyl}-1-cyclohexylbenzimidazole-5-carboxylic acid hydrochloride], the IC50 was 21 nM.
In the case of `CC(C)NC(=O)c1ccc(COc2ccc(-c3nc4cc(C(=O)O)ccc4n3C3CCCCC3)cc2)c(-c2ccc(Cl)cc2)c1` [Example 350, 2-{4-[2-(4-chlorophenyl)-4-(isopropylcarbamoyl)benzyloxy]phenyl}-1-cyclohexylbenzimidazole-5-carboxylic acid hydrochloride], the IC50 is reported as 20 nM.
Compound `O=C(O)c1ccc2c(c1)nc(-c1ccc(OCc3ccc(C(=O)N4CCCCC4)cc3-c3ccc(Cl)cc3)cc1)n2C1CCCCC1` [Example 351, 2-{4-[2-(4-chlorophenyl)-4-(piperidinocarbonyl)benzyloxy]phenyl}-1-cyclohexylbenzimidazole-5-carboxylic acid hydrochloride] has an IC50 of 19 nM.
Compound `CC(C)(CO)NC(=O)c1ccc(-c2ccc(Cl)cc2)c(COc2ccc(-c3nc4cc(C(=O)O)ccc4n3C3CCCCC3)cc2)c1` [Example 352, 2-{4-[2-(4-chlorophenyl)-5-{(1-hydroxy-2-methylpropan-2-yl)carbamoyl}benzyloxy]phenyl}-1-cyclohexylbenzimidazole-5-carboxylic acid hydrochloride] has an IC50 of 13 nM.
For `CC1(C)COC(c2ccc(-c3ccc(Cl)cc3)c(COc3ccc(-c4nc5cc(C(=O)O)ccc5n4C4CCCCC4)cc3)c2)=N1` [Example 353, 2-{4-[2-(4-chlorophenyl)-5-(4,4-dimethyl-2-oxazolin-2-yl)benzyloxy]phenyl}-1-cyclohexylbenzimidazole-5-carboxylic acid dihydrochloride], the IC50 was 23 nM.
With `O=C(O)c1ccc2c(c1)nc(-c1ccc(OCc3ccc(C(=O)N4CCC(O)CC4)cc3-c3ccc(Cl)cc3)cc1)n2C1CCCCC1` [Example 354, 2-{4-[2-(4-chlorophenyl)-4-(4-hydroxypiperidin-1-ylcarbonyl)benzyloxy]phenyl}-1-cyclohexylbenzimidazole-5-carboxylic acid hydrochloride] the IC50 was 13 nM.
Compound `O=C(O)c1ccc2c(c1)nc(-c1ccc(OCc3ccc(C(=O)NCCO)cc3-c3ccc(Cl)cc3)cc1)n2C1CCCCC1` [Example 355, 2-{4-[2-(4-chlorophenyl)-4-{(2-hydroxyethyl)carbamoyl}-benzyloxy]phenyl}-1-cyclohexylbenzimidazole-5-carboxylic acid hydrochloride] has an IC50 of 15 nM.
`O=C(O)c1ccc2c(c1)nc(-c1ccc(OCc3ccc(C(=O)NCc4ccncc4)cc3-c3ccc(Cl)cc3)cc1)n2C1CCCCC1` [Example 356, 2-{4-[2-(4-chlorophenyl)-4-{(4-pyridylmethyl)carbamoyl}-benzyloxy]phenyl}-1-cyclohexylbenzimidazole-5-carboxylic acid] showed an IC50 of 16 nM.
For `CN(C)C(=O)c1ccc(COc2ccc(-c3nc4cc(C(=O)O)ccc4n3C3CCCCC3)cc2)c(-c2ccc(Cl)cc2)c1` [Example 357, 2-{4-[2-(4-chlorophenyl)-4-(dimethylcarbamoyl)benzyloxy]phenyl}-1-cyclohexylbenzimidazole-5-carboxylic acid hydrochloride], the IC50 was 19 nM.
Work on `Nc1nc(-c2ccc(-c3ccc(Cl)cc3)c(COc3ccc(-c4nc5cc(C(=O)O)ccc5n4C4CCCCC4)cc3)c2)cs1` [Example 358, 2-{4-[5-(2-aminothiazol-4-yl)-2-(4-chlorophenyl)benzyloxy]-phenyl}-1-cyclohexylbenzimidazole-5-carboxylic acid dihydrochloride] yielded an IC50 of 17 nM.
Compound `O=C(O)c1ccc2c(c1)nc(-c1ccc(OCc3cc(S(=O)(=O)N4CCC(O)CC4)ccc3-c3ccc(Cl)cc3)cc1)n2C1CCCCC1` [Example 359, 2-{4-[2-(4-chlorophenyl)-5-(4-hydroxypiperidin-1-ylsulfonyl)benzyloxy]phenyl}-1-cyclohexylbenzimidazole-5-carboxylic acid hydrochloride] has an IC50 of 15 nM.
`CN(C)C(=O)c1ccc(-c2ccc(F)cc2)c(COc2ccc(-c3nc4cc(C(=O)O)ccc4n3C3CCCCC3)cc2)c1` [Example 360, 2-{4-[5-(dimethylcarbamoyl)-2-(4-fluorophenyl)benzyloxy]phenyl}-1-cyclohexylbenzimidazole-5-carboxylic acid hydrochloride] showed an IC50 of 14 nM.

Source: patent US20040082635A1, “Fused cyclic compounds and medicinal use thereof” (priority 2001, published 2004)
